Source: publication PMC8695447, “Novel Small Molecules Capable of Blocking mtRAS-Signaling Pathway” (Frontiers in Oncology, 2021)

How the values were obtained:
Type in all cases: cell-based
[1] = tested on: cancer cells with mtRAS including H358, AsPC-1, DU-145, SW480, and MDA-MB-231; test: Invasion assay (Boyden chamber assay); settings: 0.01 µM, 48 h
Experimental: For invasion assay, Boyden chamber assay carried out. Transwell insert was precoated with matrigel (Corning, #354248). Cells were seeded in the transwell chamber insert (8 μm pore size) at a density of 5.0 × 10^5 cells/well after serum starvation for overnight. The cells were incubated with 0.01 μM concentration of each compounds of for 48 h at 37°C. The non-invaded cells were eliminated. Crystal violet solution was used to staining the invaded cells. Cells were observed and photographed with 100× magnification. Stained cells were automatically counted and quantified (n = 3).
Figure 6 The effects of SIJ1795 and SIJ1772 on migration and invasion activities of cancer cells harboring mtRAS. (A) Scratch assay result for cell migration ability determination. Each cell monolayers were scratched and incubated with test compounds at 0.01 μM. After 8 h (MDA-MB-231) or 24 h (DU-145, SW480, HCT-116) or 48 h (AsPC-1) or 72 h (HT-29), cells were stained with crystal violet. Migrated areas were photographed with 40× magnification. Migrated area was determined by ImageJ (n = 3). (B) Boyden chamber assay result for cell invasion ability determination. […] Stained cells were counted by ImageJ (n = 3). Statistical significance was determined using a one-way ANOVA analysis (*p < 0.05, **p < 0.01, ***p < 0.001, ****p < 0.0001).

[2] = tested on: phospho-AKT, -MEK, -ERK in cancer cells harboring mtRAS; test: Western blot, phospho-AKT, -MEK, -ERK in cancer cells harboring mtRAS; settings: 0.1, 1, and 10 μM for 2 h
Experimental: Approximately 1 × 10^6 cells per well were seeded in a 6-well cell culture plate. After cell adhesion, each compounds were treated for 2 h with indicated concentration and conducted brief washing twice by ice-cold PBS. Cells were lysed by NP40 buffer (50 mM Tris–HCl pH 7.4, 1% NP40, 2 mM EDTA, 150 mM NaCl) in the presence of protease inhibitor cocktail (Roche, #11873580001) and phosphatase inhibitor cocktail (Roche, #04906837001). Each sample was loaded with same amount of total protein and separated by SDS-PAGE gel. After transferred to nitrocellulose membrane, blocking with 5% skim milk (in TBS/T) was followed. The membrane was incubated 4°C for overnight with uniformly diluted primary antibodies at 1:1,000 (v/v) in TBS/T. The following primary antibodies were used: anti-p-AKT (Cell Signaling, #9271), anti-p-ERK1/2 (Cell Signaling, #4370), anti-PARP (Cell Signaling, #9542), anti-GAPDH (Cell Signaling, #5174), anti-p-70S6K1 (Cell Signaling, #9204), anti-p-JNK(Cell Signaling, #9251), anti-p-p38 (Cell Signaling, #9216), and anti-p-MEK1/2 (Santa Cruz, sc-81503). […] Chemiluminescence signals were detected by ImageQuant™ LAS 4000 (GE Healthcare). […]

[3] = tested on: cancer cells with mtRAS including H358, AsPC-1, DU-145, SW480, and MDA-MB-231; test: Migration assay (scratch assay); settings: 0.01 µM
Experimental: For migration assay, scratch assay was conducted. Each cells (2.0 × 10^5 cells/well) were seeded in 24-well plates. After cellular attachment, cells were scratched with a SPLScarTM Scratcher (SPL Life Sciences, #201924) and the detached cells were removed by PBS washing twice. Cells were incubated in complete media with 0.01 μM concentrations of each compounds for indicated time. The images were acquired before and after incubation with compounds (40× magnification), and percent of migration were accessed using ImageJ (n = 3).
Figure 6 The effects of SIJ1795 and SIJ1772 on migration and invasion activities of cancer cells harboring mtRAS. (A) Scratch assay result for cell migration ability determination. Each cell monolayers were scratched and incubated with test compounds at 0.01 μM. After 8 h (MDA-MB-231) or 24 h (DU-145, SW480, HCT-116) or 48 h (AsPC-1) or 72 h (HT-29), cells were stained with crystal violet. Migrated areas were photographed with 40× magnification. Migrated area was determined by ImageJ (n = 3). (B) Boyden chamber assay result for cell invasion ability determination. Indicated compounds of 0.01 μM were treated and incubated for 48 h Invaded cells were stained by crystal violet and photographed. Stained cells were counted by ImageJ (n = 3). Statistical significance was determined using a one-way ANOVA analysis (*p < 0.05, **p < 0.01, ***p < 0.001, ****p < 0.0001).

[4] = tested on: phospho-AKT, -MEK, -ERK in Ba/F3-NRAS-G12D and Ba/F3-NRAS-G12V cells; test: Western blot, phospho-AKT, -MEK, -ERK in Ba/F3 cells transformed with mtRAS; settings: 2 h; for inhibitory capabilities on phosphorylation level of MEK, ERK, and AKT at 1 µM relative to GNF-7: Ba/F3 mtRAS cells; for phospho-AKT, -MEK, -ERK levels at 10 µM: Ba/F3 cells transformed with mtRAS (NRAS-G12D and NRAS-G12V)
Experimental: Approximately 1 × 10^6 cells per well were seeded in a 6-well cell culture plate. After cell adhesion, each compounds were treated for 2 h with indicated concentration and conducted brief washing twice by ice-cold PBS. Cells were lysed by NP40 buffer (50 mM Tris–HCl pH 7.4, 1% NP40, 2 mM EDTA, 150 mM NaCl) in the presence of protease inhibitor cocktail (Roche, #11873580001) and phosphatase inhibitor cocktail (Roche, #04906837001). Each sample was loaded with same amount of total protein and separated by SDS-PAGE gel. After transferred to nitrocellulose membrane, blocking with 5% skim milk (in TBS/T) was followed. The membrane was incubated 4°C for overnight with uniformly diluted primary antibodies at 1:1,000 (v/v) in TBS/T. The following primary antibodies were used: anti-p-AKT (Cell Signaling, #9271), anti-p-ERK1/2 (Cell Signaling, #4370), anti-PARP (Cell Signaling, #9542), anti-GAPDH (Cell Signaling, #5174), anti-p-70S6K1 (Cell Signaling, #9204), anti-p-JNK(Cell Signaling, #9251), anti-p-p38 (Cell Signaling, #9216), and anti-p-MEK1/2 (Santa Cruz, sc-81503). Each membrane was incubated with HRP-conjugated goat anti-Rabbit secondary antibody (Gendepot, SA002-500) or HRP-conjugated goat anti-Mouse secondary antibody (Gendepot, SA001-500) for 1 h (1:10,000, v/v) in TBS/T at room temperature and followed ECL solution treatment. Chemiluminescence signals were detected by ImageQuant™ LAS 4000 (GE Healthcare).
Figure 1 The effects of (A) SIJ1795 and (B) SIJ1772 on MAPK and PI3K/AKT signaling pathways in Ba/F3 cells transformed with mtRAS (NRAS-G12D and NRAS-G12V). Cells were treated with 0.1, 1, and 10 μM of SIJ1795, SIJ1772, and GNF-7 for 2 h. Western blot analysis was conducted to evaluate the phospho-AKT, -MEK, -ERK levels. GAPDH was used as the loading control.

[5] = tested on: DU-145 (KRAS-G12V); test: Anti-proliferation assay on DU-145; settings: Homo sapiens, DU-145; 72 h treatment; average with SD (n = 3, duplicate)
Experimental: (§1) Ba/F3-parental, OCI-AML3, U397 cells were purchased from DSMZ. MDA-MB-231, HCT-116, AsPC-1, H358, HT-29, SW480, and DU-145 cells were obtained from KCLB. MDA-MB-468 cells were obtained from ATCC. All cells were maintained in RPMI with 10% FBS and antibiotics. Cells were grown in a humidified 5% CO2 incubator at 37°C. Ba/F3-parental cells were grown in the presence of 10 ng/ml IL-3. NRAS-G12D or NRAS-G12V transformed Ba/F3 cell lines (Ba/F3-NRAS-G12D, and Ba/F3-NRAS-G12V, respectively) were cultured without IL-3, which were established by the procedure described as previously ([30]).
(§2) Approximately 3.0 × 10^3 cells/well were seeded in a 96-well cell culture plate. After stabilization, 1/3 serially diluted compound in DMSO was treated to the cell. […] All GI50 values were obtained in duplicate with three independent assays and averages with standard deviation are presented.

[6] = tested on: Ba/F3-NRAS-G12D cells; test: Anti-proliferation assay (CellTiter Glo) on Ba/F3-NRAS-G12D; settings: Mus musculus, BaF3; 72 h treatment; average with SD (n = 3, duplicate)
Experimental: as §1, §2

In the case of Cc1ccc(NC(=O)c2cccc(C(F)(F)F)c2)cc1N1Cc2cnc(Nc3cnn(C4CCN(S(C)(=O)=O)CC4)c3)nc2N(C)C1=O [SIJ1772, N-(4-Methyl-3-(1-methyl-7-((1-(1-(methylsulfonyl)piperidin-4-yl)-1H-pyrazol-4-yl)amino)-2-oxo-1,4-dihydropyrimido[4,5-d]pyrimidin-3(2H)-yl)phenyl)-3-(trifluoromethyl)benzamide], the “reduction in invasion capabilities” value [1] is reported as “over 50%”, the “signaling inhibitory activities in cancer cells with mtRAS relative to GNF-7” value [2] is reported as “comparable to those of GNF-7” and the “reduction in migration capabilities” value [3] is reported as “over 50%”. For the same compound, the “inhibitory capabilities on phosphorylation level of MEK, ERK, and AKT at 1 µM relative to GNF-7” value [4] was “slightly increased relative to that of GNF-7”, the “phospho-AKT, -MEK, -ERK levels at 10 µM” value [4] was “completely inhibited” and the GI50 [5] was 29 ± 3 nM. It also gave a GI50 [6] of 77 ± 16 nM.

In the case of CCN1CCN(c2cccc(Nc3ncc4c(n3)N(C)C(=O)N(c3cc(NC(=O)c5cccc(C(F)(F)F)c5)ccc3C)C4)c2)CC1 [SIJ1795, N-(3-(7-((3-(4-Ethylpiperazin-1-yl)phenyl)amino)-1-methyl-2-oxo-1,4-dihydropyrimido[4,5-d]pyrimidin-3(2H)-yl)-4-methylphenyl)-3-(trifluoromethyl)benzamide], the “reduction in invasion capabilities” value [1] is reported as “over 50%”, the “signaling inhibitory activities in cancer cells with mtRAS relative to GNF-7” value [2] is reported as “comparable to those of GNF-7” and the “reduction in migration capabilities” value [3] is reported as “over 50%”. The “inhibitory capabilities on phosphorylation level of MEK, ERK, and AKT at 1 µM relative to GNF-7” value [4] was “slightly increased relative to that of GNF-7”, the “phospho-AKT, -MEK, -ERK levels at 10 µM” value [4] was “completely inhibited” and the GI50 [5] was 77 ± 43 nM. It also gave a GI50 [6] of 82 ± 31 nM.
